Columns and labels:
ABUTH [1] = assay: Pre-emergence herbicidal action against ABUTH; format: in vivo, Abutilon theophrasti
How it was run: (§1)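 Herbicidal effect was assessed 3 weeks after treatment by visual comparison with untreated controls, 100% denoting dead plants. Aqueous WP or EC preparations had been applied at 600 to 800 l/ha with 0.2% wetting agent to the soil covering freshly sown seeds.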

ALOMY [2] = assay: Pre-emergence herbicidal action against ALOMY; format: in vivo, Alopecurus myosuroides; conditions: 80 g/ha, pre-emergence, scored visually after 3 weeks vs untreated controls (100% = plants have died, 0% = like control plants)
How it was run: as §1

AMARE [3] = assay: Pre-emergence herbicidal action against AMARE; format: in vivo, Amaranthus retroflexus
How it was run: as §1

AVEFA = assay: Pre-emergence herbicidal action against AVEFA; format: in vivo, Avena fatua; conditions: 80 g/ha, pre-emergence
How it was run: as §1

ECHCG [4] = assay: Pre-emergence herbicidal action against ECHCG; format: in vivo, Echinochloa crus-galli
How it was run: as §1

MATIN [5] = assay: Pre-emergence herbicidal action against MATIN; format: in vivo, Matricaria inodora
How it was run: as §1

PHBPU [6] = assay: Pre-emergence herbicidal action against PHBPU; format: in vivo, Pharbitis purpurea; conditions: dosage 80 g/ha
How it was run: as §1

POLCO [7] = assay: Pre-emergence herbicidal action against POLCO; format: in vivo, Polygonum convolvulus; conditions: dosage 80 g/ha
How it was run: as §1

SETVI [8] = assay: Pre-emergence herbicidal action against SETVI; format: in vivo, Setaria viridis; conditions: dosage 80 g/ha
How it was run: as §1

VERPE [9] = assay: Pre-emergence herbicidal action against VERPE; format: in vivo, Veronica persica
How it was run: as §1

VIOTR [10] = assay: Pre-emergence herbicidal action against VIOTR; format: in vivo, Viola tricolor
How it was run: as §1

DIGSA [11] = assay: Pre-emergence herbicidal action against DIGSA; format: in vivo, Digitaria sanguinalis
How it was run: as §1

ALOMY [12] = assay: Post-emergence herbicidal action against ALOMY; format: in vivo, Alopecurus myosuroides; conditions: dosage 20 g/ha, visual assessment about 3 weeks after treatment vs untreated controls
How it was run: (§2)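 Herbicidal effect was scored visually in percent after about 3 weeks in the greenhouse. Plants had been raised in sandy loam and treated post-emergence at the one-leaf stage with formulated compound at 600 to 800 l/ha water plus 0.2% wetting agent.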

ECHCG [13] = assay: Post-emergence herbicidal action against ECHCG; format: in vivo, Echinochloa crus-galli
How it was run: as §2

MATIN [14] = assay: Post-emergence herbicidal action against MATIN; format: in vivo, Matricaria inodora
How it was run: as §2

PHBPU [15] = assay: Post-emergence herbicidal action against PHBPU; format: in vivo, Pharbitis purpurea; conditions: dosage 20 g/ha
How it was run: as §2

POLCO [16] = assay: Post-emergence herbicidal action against POLCO; format: in vivo, Polygonum convolvulus; conditions: dosage 20 g/ha
Description: Seeds of monocotyledonous and dicotyledonous weed and crop plants are laid out in sandy loam soil in wood-fiber pots, covered with soil and cultivated in a greenhouse under good growth conditions. 2 to 3 weeks after sowing, the test plants are treated at the one-leaf stage. The compounds of the invention, formulated in the form of wettable powders (WP) or as emulsion concentrates (EC), are then sprayed onto the green parts of the plants in the form of an aqueous suspension or emulsion at a water application rate equivalent to 600 to 800 l/ha, with addition of 0.2% wetting agent. After the test plants have been left to stand in the greenhouse under optimal growth conditions for about 3 weeks, the action of the preparations is assessed visually in comparison to untreated controls (herbicidal action in percent (%): 100% activity=the plants have died, 0% activity=like control plants). […] The tables below illustrate, in an illustrative manner, the post-emergence herbicidal action of the compounds of the invention, the herbicidal activity being stated in percent.

VERPE [17] = assay: Post-emergence herbicidal action against VERPE; format: in vivo, Veronica persica
How it was run: as §2

VIOTR [18] = assay: Post-emergence herbicidal action against VIOTR; format: in vivo, Viola tricolor
How it was run: as §2

ABUTH [19] = assay: Post-emergence herbicidal action against ABUTH; format: in vivo, Abutilon theophrasti; conditions: Abutilon theophrasti, 504 h, visual assessment about 3 weeks after treatment vs untreated controls
How it was run: as §2

AMARE [20] = assay: Post-emergence herbicidal action against AMARE; format: in vivo, Amaranthus retroflexus; conditions: Amaranthus retroflexus, 504 h, 20 g/ha, visual assessment about 3 weeks after treatment, 100% = plants have died, 0% = like control plants
How it was run: as §2

SETVI [21] = assay: Post-emergence herbicidal action against SETVI; format: in vivo, Setaria viridis; conditions: Setaria viridis, 504 h
How it was run: as §2

DIGSA [22] = assay: Post-emergence herbicidal action against DIGSA; format: in vivo, Digitaria sanguinalis; conditions: Digitaria sanguinalis, 504 h
How it was run: as §2

[23] = 80 g/ha, scored visually after 3 weeks vs untreated controls (100% = plants have died, 0% = like control plants)
[24] = Tripleurospermum inodorum, 504 h, dosage 20 g/ha

CC(NC(=O)c1c(Br)ccc(C(=O)Nc2nnnn2C)c1Cl)C1CC1 (centres unmarked) [Example 1-183]
80%: Pre-emergence action against POLCO in % (POLCO [7]) | Post-emergence action against PHBPU in % (PHBPU [15]) | Post-emergence action against VERPE in % (VERPE [17]; 5 g/ha)
90%: Pre-emergence action against ALOMY (herbicidal activity) (ALOMY [2]) | Pre-emergence action against AVEFA in % (AVEFA) | Pre-emergence action against ECHCG in % (ECHCG [4]; 20 g/ha) | Pre-emergence action against MATIN in % (MATIN [5]; dosage 20 g/ha) | Pre-emergence action against PHBPU in % (PHBPU [6]) | Pre-emergence action against VERPE in % (VERPE [9]; dosage 20 g/ha) | Post-emergence action against ALOMY in % (ALOMY [12]) | Post-emergence action against MATIN in % (MATIN [14]; dosage 5 g/ha) | Post-emergence action against MATIN in % (MATIN [14]; dosage 20 g/ha) | Post-emergence action against VERPE in % (VERPE [17]; 20 g/ha) | Post-emergence action against VIOTR in % (VIOTR [18]; 5 g/ha) | Post-emergence action against VIOTR in % (VIOTR [18]; 20 g/ha)
100%: Pre-emergence action against ABUTH (herbicidal activity) (ABUTH [1]; [23]) | Pre-emergence action against ABUTH (herbicidal activity in percent) (ABUTH [1]; dosage 20 g/ha, scored visually after 3 weeks vs untreated controls, 100% = plants have died, 0% = like control plants) | Pre-emergence action against AMARE in % (AMARE [3]; 20 g/ha, scored visually after 3 weeks vs untreated controls, 100% = plants have died, 0% = like control plants) | Pre-emergence action against AMARE in % (AMARE [3]; [23]) | Pre-emergence action against ECHCG in % (ECHCG [4]; 80 g/ha) | Pre-emergence action against MATIN in % (MATIN [5]; dosage 80 g/ha) | Pre-emergence action against SETVI in % (SETVI [8]) | Pre-emergence action against VERPE in % (VERPE [9]; dosage 80 g/ha) | Pre-emergence action against VIOTR in % (VIOTR [10]; dosage 20 g/ha) | Pre-emergence action against VIOTR in % (VIOTR [10]; dosage 80 g/ha) | Pre-emergence action against DIGSA in % (DIGSA [11]; dosage 20 g/ha) | Pre-emergence action against DIGSA in % (DIGSA [11]; dosage 80 g/ha) | Post-emergence action against ECHCG in % (ECHCG [13]; dosage 20 g/ha) | Post-emergence action against POLCO in % (POLCO [16])

Cn1nnnc1NC(=O)c1ccc(C(F)F)c(C(=O)NC2CC2)c1C1CC1 [Example 1-306]
90%: pest or weed control at 80 g/ha (PHBPU [6]; Ipomoea purpurea, 504 h) | pest or weed control at 80 g/ha (POLCO [7]; Fallopia convolvulus, 504 h) | pest or weed control at 80 g/ha (VERPE [9]; Veronica persica, 504 h, dosage 80 g/ha) | pest or weed control at 5 g/ha (ECHCG [13]; Echinochloa crus-galli, 504 h, dosage 5 g/ha) | pest or weed control at 20 g/ha (ECHCG [13]; Echinochloa crus-galli, 504 h, dosage 20 g/ha) | pest or weed control at 5 g/ha (MATIN [14]; Tripleurospermum inodorum, 504 h, dosage 5 g/ha) | pest or weed control at 20 g/ha (MATIN [14]; [24]) | pest or weed control at 5 g/ha (SETVI [21]; dosage 5 g/ha) | pest or weed control at 20 g/ha (SETVI [21]; dosage 20 g/ha) | pest or weed control at 20 g/ha (VERPE [17]; Veronica persica, 504 h, 20 g/ha) | pest or weed control at 20 g/ha (VIOTR [18]; Viola tricolor, 504 h, 20 g/ha) | pest or weed control at 5 g/ha (DIGSA [22]; 5 g/ha) | pest or weed control at 20 g/ha (DIGSA [22]; 20 g/ha)
80%: pest or weed control at 80 g/ha (AVEFA; Avena fatua, 504 h) | pest or weed control at 5 g/ha (ABUTH [19]; dosage 5 g/ha) | pest or weed control at 20 g/ha (ABUTH [19]; dosage 20 g/ha) | pest or weed control at 20 g/ha (POLCO [16]; Fallopia convolvulus, 504 h)
100%: pest or weed control at 80 g/ha (ABUTH [1]; Abutilon theophrasti, 504 h, 80 g/ha, scored visually after 3 weeks vs untreated controls (100% = plants have died, 0% = like control plants)) | pest or weed control at 20 g/ha (ABUTH [1]; Abutilon theophrasti, 504 h, dosage 20 g/ha, scored visually after 3 weeks vs untreated controls, 100% = plants have died, 0% = like control plants, read-out: Pre-emergence action against ABUTH (herbicidal activity in percent)) | pest or weed control at 20 g/ha (AMARE [3]; Amaranthus retroflexus, 504 h, 20 g/ha, scored visually after 3 weeks vs untreated controls, 100% = plants have died, 0% = like control plants) | pest or weed control at 80 g/ha (AMARE [3]; Amaranthus retroflexus, 504 h, 80 g/ha, scored visually after 3 weeks vs untreated controls, 100% = plants have died, 0% = like control plants) | pest or weed control at 80 g/ha (ECHCG [4]; Echinochloa crus-galli, 504 h, 80 g/ha) | pest or weed control at 20 g/ha (MATIN [5]; [24]) | pest or weed control at 80 g/ha (MATIN [5]; Tripleurospermum inodorum, 504 h, dosage 80 g/ha) | pest or weed control at 80 g/ha (SETVI [8]; Setaria viridis, 504 h) | pest or weed control at 20 g/ha (VIOTR [10]; Viola tricolor, 504 h, dosage 20 g/ha) | pest or weed control at 80 g/ha (VIOTR [10]; Viola tricolor, 504 h, dosage 80 g/ha) | pest or weed control at 20 g/ha (DIGSA [11]; Digitaria sanguinalis, 504 h, dosage 20 g/ha) | pest or weed control at 80 g/ha (DIGSA [11]; Digitaria sanguinalis, 504 h, dosage 80 g/ha) | pest or weed control at 20 g/ha (AMARE [20])

— patent publication US12655116B2, “Substituted isophthalic acid diamides” (Bayer Aktiengesellschaft, priority 2020, dated 2026)
